Test results as given in patent US20130172345A1, “1-ACYL-4-(PHENOXY, BENZYLOXY, OR PHENYLAMINO)-1,2,3,4-TETRAHYDROQUINOLINE DERIVATIVES” (KOWA COMPANY, LTD., priority 2007, published 2013).
Structures can show the parent of a compound that is named as a salt.

Tests used:
[1] = system: HepG2 cells originating from human liver cancer; assay: EPO production in HepG2 cells (EPO ELISA of culture supernatant, 4% oxygen, 48 hrs); type: cell-based; conditions: test compound 3 μM, oxygen 4%, non-stimulated state = 100%, read-out: EPO production amount, % of control (3 μM)
Protocol: HepG2 cells originating from human liver cancer were seeded at a density of 1×10^4 cells per well on a 24-well plate by using minimum essential medium (MEM, manufactured by Sigma) comprising 10% bovine fetal serum. Next day, the medium was exchanged with Dulbecco's modified eagle medium (DMEM, manufactured by Sigma) comprising 10% bovine fetal serum lacking phenol red. Then, the test compound dissolved in DMSO was added thereto to obtain the final concentration of 3 μM or 10 μM while having 400 μl of the medium per well. The cells were incubated for 48 hrs in a CO2 incubator which had been adjusted to have oxygen concentration of 4%, followed by collecting the culture supernatant. The EPO concentration in the culture supernatant was immediately measured by using EPO ELISA kit (manufactured by Roche Diagnostics K.K.). Specific procedures were carried out according to the manufacturer's protocol included in the kit.
When EPO production amount in non-stimulated state, i.e., without addition of any compound, was 100%, the EPO production amount induced by each compound was calculated (% of control).

[2] = system: K562 cells, human proerythroblast cells; assay: Hemoglobin production in K562 cells (fluorescence of the porphyrin ring); type: cell-based; conditions: 144 h, test compound 6 μM, 3+3 days, non-stimulated state = 100%, read-out: production amount of hemoglobin, % of control (6 μM)
Protocol: K562 cells (obtained from ATCC), which are human proerythroblast cells, were seeded at a density of 1×10^5 cells/1 mL on a 24-well plate by using complete medium (RPMI-1640 medium comprising 10% bovine fetal serum). After adding the test compound having 1000× concentration (1 μL), the cells were incubated for three days in a CO2 incubator (37° C., 5% CO2). After exchanging the medium, the cells were further incubated for three days. Then, the cells were collected and counted. After adjusting them to have 3×10^5 cells, the amount of hemoglobin produced in the cells was determined by measuring fluorescence of the porphyrin ring. Specifically, the cells which had been collected by centrifugation were suspended in 2 M oxalic acid solution (500 μL) and boiled for 30 minutes under heating. After cooling the cells, the fluorescence intensity was measured by Fluorescence micro plate reader (Spectra MAX GeminiEM, manufactured by Molecular Devices Corporation) ([…]). When hemoglobin amount in non-stimulated state, i.e., without addition of any compound, was 100%, the production amount of hemoglobin induced by each compound was calculated (% of control).

`CC(=O)N1c2ccc(N3CCN(C(=O)C4CCCCC4)CC3)cc2C(Nc2ccc(Cl)cc2)CC1C` (stereo not shown) [Compound 85, 1-acetyl-4-[(4-chlorophenyl)amino]-6-[(4-cyclohexylcarbonyl)piperazino]-2-methyl-1,2,3,4-tetrahydroquinoline] gave an activity at 3 µM [1] of 147% and an activity at 6 µM [2] of 189%.
Molecule `CC(=O)N1c2ccccc2[C@H](Oc2ccc(F)cc2F)C[C@@H]1C` (relative stereo) [Compound 30, cis-1-acetyl-4-(2,4-difluorophenoxy)-2-methyl-1,2,3,4-tetrahydroquinoline] has an activity at 3 µM [1] of 339% and an activity at 6 µM [2] of 136%.
Work on `CC(=O)N1c2ccccc2C(Nc2ccc(C(C)C)cc2)CC1C` (stereo not shown) [Compound 21, 1-acetyl-4-[(4-isopropylphenyl)amino]-2-methyl-1,2,3,4-tetrahydroquinoline] yielded an activity at 3 µM [1] of 231% and an activity at 6 µM [2] of 301%.
For `CC(=O)N1c2ccccc2C(Nc2cccc(F)c2)CC1C` (stereo not shown) [Compound 16, 1-acetyl-4-[(3-fluorophenyl)amino]-2-methyl-1,2,3,4-tetrahydroquinoline], the activity at 3 µM [1] was 288% and the activity at 6 µM [2] was 416%.
In the case of `CCOC(=O)Cc1ccc(NC2CC(C)N(C(C)=O)c3ccc(F)cc32)cc1` (stereo not shown) [Compound 122, 1-acetyl-4-[(4-ethoxycarbonylmethylphenyl)amino]-6-fluoro-2-methyl-1,2,3,4-tetrahydroquinoline], the activity at 3 µM [1] is reported as 139% and the activity at 6 µM [2] is reported as 213%.
Molecule `CC(=O)N1c2c(F)cccc2[C@H](Nc2ccccc2F)C[C@@H]1C` (relative stereo) [Compound 4, cis-1-acetyl-8-fluoro-4-[(2-fluorophenyl)amino]-2-methyl-1,2,3,4-tetrahydroquinoline] has an activity at 3 µM [1] of 163% and an activity at 6 µM [2] of 92%.
Molecule `CCC(=O)N1c2ccccc2C(Nc2ccccc2)CC1C` (stereo not shown) [Compound 3, 2-methyl-4-phenylamino-1-propionyl-1,2,3,4-tetrahydroquinoline] has an activity at 3 µM [1] of 187% and an activity at 6 µM [2] of 912%.
`COc1ccccc1NC1CC(C)N(C(C)=O)c2ccccc21` (stereo not shown) [Compound 12, 1-acetyl-4-[(2-methoxyphenyl)amino]-2-methyl-1,2,3,4-tetrahydroquinoline] was tested, and the activity at 3 µM [1] was 197% and the activity at 6 µM [2] was 398%.
Work on `C[C@H]1C[C@@H](Nc2ccc(F)cc2)c2cc(F)ccc2N1C(=O)C1CCCCC1` (relative stereo) [Compound 6, cis-1-cyclohexanecarbonyl-6-fluoro-4-[(4-fluorophenyl)amino]-2-methyl-1,2,3,4-tetrahydroquinoline] yielded an activity at 3 µM [1] of 225% and an activity at 6 µM [2] of 326%.
`CC(=O)N1c2ccccc2[C@H](Oc2ccc(F)c(F)c2)C[C@@H]1C` (relative stereo) [Compound 31, cis-1-acetyl-4-(3,4-difluorophenoxy)-2-methyl-1,2,3,4-tetrahydroquinoline] gave an activity at 3 µM [1] of 302% and an activity at 6 µM [2] of 156%.
With `COCc1ccc(NC2CC(C)N(C(C)=O)c3ccccc32)cc1` (stereo not shown) [Compound 69, 1-acetyl-4-[(4-methoxymethylphenyl)amino]-2-methyl-1,2,3,4-tetrahydroquinoline] the activity at 3 µM [1] was 150% and the activity at 6 µM [2] was 407%.
`CC(=O)N1c2cc(N3CCOCC3)ccc2C(Nc2ccc(Cl)cc2)CC1C` (stereo not shown) [Compound 44, 1-acetyl-4-[(4-chlorophenyl)amino]-2-methyl-7-morpholino-1,2,3,4-tetrahydroquinoline] was tested, and the activity at 3 µM [1] was 301% and the activity at 6 µM [2] was 162%.
For `CC(=O)N1c2ccc(C(N)=O)cc2C(Nc2ccc(CC#N)cc2)CC1C` (stereo not shown) [Compound 104, 1-acetyl-4-[(4-cyanomethylphenyl)amino]-2-methyl-1,2,3,4-tetrahydroquinoline-6-carboxamide], the activity at 3 µM [1] was 204% and the activity at 6 µM [2] was 536%.
In the case of `CC(=O)N1c2ccc(C#N)cc2C(Nc2ccccc2)CC1C` (stereo not shown) [Compound 14, 1-acetyl-6-cyano-2-methyl-4-phenylamino-1,2,3,4-tetrahydroquinoline], the activity at 3 µM [1] is reported as 257% and the activity at 6 µM [2] is reported as 440%.
For `CC(=O)N1c2ccccc2C(Nc2ccccc2N2CCOCC2)CC1C` (stereo not shown) [Compound 72, 1-acetyl-2-methyl-4-[(2-morpholinophenyl)amino]-1,2,3,4-tetrahydroquinoline], the activity at 3 µM [1] was 243% and the activity at 6 µM [2] was 577%.
With `CC(=O)N1c2ccccc2C(Nc2ccc(N3CCOCC3)cc2)CC1C` (stereo not drawn) [Compound 19, cis-1-acetyl-2-methyl-4-[(4-morpholinophenyl)amino]-1,2,3,4-tetrahydroquinoline.hydrochloride] the activity at 3 µM [1] was 191% and the activity at 6 µM [2] was 284%.
With `CC(=O)N1c2ccccc2C(Nc2ccccc2)CC1C` (stereo not shown) [Compound 1, 1-acetyl-2-methyl-4-phenylamino-1,2,3,4-tetrahydroquinoline] the activity at 3 µM [1] was 235% and the activity at 6 µM [2] was 575%.
Molecule `CC(=O)N1c2ccc(N)cc2C(Nc2ccc(Cl)cc2)CC1C` (stereo not shown) [Compound 95, 1-acetyl-6-amino-4-[(4-chlorophenyl)amino]-2-methyl-1,2,3,4-tetrahydroquinoline] has an activity at 3 µM [1] of 213% and an activity at 6 µM [2] of 158%.
With `CC(=O)N1c2ccc(C(=O)N(C)C)cc2C(Nc2ccc(Cl)cc2)CC1C` (stereo not shown) [Compound 113, 1-acetyl-4-[(4-chlorophenyl)amino]-N,N,2-trimethyl-1,2,3,4-tetrahydroquinoline-6-carboxamide] the activity at 3 µM [1] was 112% and the activity at 6 µM [2] was 163%.
For `CC(=O)N1c2ccc(NS(C)(=O)=O)cc2C(Nc2ccc(Cl)cc2)CC1C` (stereo not shown) [Compound 45, 1-acetyl-4-[(4-chlorophenyl)amino]-2-methyl-6-methanesulfonylamino-1,2,3,4-tetrahydroquinoline], the activity at 3 µM [1] was 286% and the activity at 6 µM [2] was 387%.
Work on `CC(=O)N1CCN(c2ccc3c(c2)[C@H](Nc2ccc(Cl)cc2)C[C@H](C)N3C(C)=O)CC1` (relative stereo) [Compound 79, cis-1-acetyl-6-[(4-acetyl)piperazino]-4-[(4-chlorophenyl)amino]-2-methyl-1,2,3,4-tetrahydroquinoline] yielded an activity at 3 µM [1] of 476% and an activity at 6 µM [2] of 186%.
In the case of `CC(=O)N1c2ccc(F)cc2C(Nc2ccc(CC(=O)N(C)C)cc2)CC1C` (stereo not shown) [Compound 125, 1-acetyl-4-[4-(N,N-dimethylaminocarbonylmethyl)phenylamino]-6-fluoro-2-methyl-1,2,3,4-tetrahydroquinoline], the activity at 3 µM [1] is reported as 148% and the activity at 6 µM [2] is reported as 118%.
`CC(=O)N1c2cc(C#N)ccc2[C@H](Nc2ccccc2)C[C@@H]1C` (relative stereo) [Compound 7, cis-1-acetyl-7-cyano-2-methyl-4-phenylamino-1,2,3,4-tetrahydroquinoline] gave an activity at 3 µM [1] of 261% and an activity at 6 µM [2] of 260%.
With `CC(=O)N1c2ccccc2[C@H](OCc2ccccc2)C[C@@H]1C` (relative stereo) [Compound 36, cis-1-acetyl-2-methyl-4-benzyloxy-1,2,3,4-tetrahydroquinoline] the activity at 3 µM [1] was 114% and the activity at 6 µM [2] was 83%.
`CC(=O)N1c2ccc(C(N)=O)cc2[C@H](Nc2ccc(CC(=O)O)cc2)C[C@@H]1C` (relative stereo) [Compound 105, cis-1-acetyl-4-[(4-carboxymethylphenyl)amino]-2-methyl-1,2,3,4-tetrahydroquinoline-6-carboxamide] was tested, and the activity at 3 µM [1] was 245% and the activity at 6 µM [2] was 358%.
For `CC(=O)N1c2ccc(F)cc2C(Nc2ccc(F)cc2)CC1C` (stereo not shown) [Compound 5, 1-acetyl-6-fluoro-4-[(4-fluorophenyl)amino]-2-methyl-1,2,3,4-tetrahydroquinoline], the activity at 3 µM [1] was 205% and the activity at 6 µM [2] was 245%.
